These are literature values, as cited in article PMC10089180 (Proceedings of the National Academy of Sciences of the …, 2023).

The target of series [1] is FPR1. The settings on record: ref [38].
The subject of series [2] is FPR1. The settings on record: tripeptide; ref [26], [27].
Series [3] deals with chemerin receptor. The conditions noted are these: Y1 missing or substituted by alanine; ref [17].
The conditions of series [4]: no reference given.
For series [5] the following is noted: ref [15], [16].

As to fMLF, the dissociation constant entry in series [1] was “low nanomolar range”. Moreover, the “agonistic activity at FPR1” value in series [2] was “full agonistic activity”. In the case of “Y1 missing: C9 when Y1 was missing (FPGQFAFS; UniProt Q99969 150-157, looked up, fragment)”, in series [3], the “reduced activity in functional assays” value was ~ 30%. Consider Asp-Arg-Val-Tyr-Ile-His-Pro-Phe [AngII], for which, in series [4], the chemotactic activity result is given as “does not display chemotactic activity”.

B1: Pre-prochemerin: 163-amino acid protein without chemotactic activity (protein, UniProt Q99969 1-163, looked up)
chain: MRRLLIPLALWLGAVGVGVAELTEAQRRGLQVALEEFHKHPPVQWAFQETSVESAVDTPFPAGIFVRLEFKLQQTSCRKRDWKKPECKVRPNGRKRKCLACIKLGSEDKVLGRLVHCPIETQVLREAEEHQETQCLRVQRAGEDPHSFYFPGQFAFSKALPRS
modifications: full-length
Take B1: the “chemotactic activity / bioactivity of chemerin form” value in series [5] is on record as “without chemotactic activity”.

B2: prochemerin (21-163): Removal of the N-terminal signal peptide results in prochemerin (21-163) (protein, UniProt Q99969 21-163, looked up)
pro-form: ELTEAQRRGLQVALEEFHKHPPVQWAFQETSVESAVDTPFPAGIFVRLEFKLQQTSCRKRDWKKPECKVRPNGRKRKCLACIKLGSEDKVLGRLVHCPIETQVLREAEEHQETQCLRVQRAGEDPHSFYFPGQFAFSKALPRS
modifications: pro-form
On to B2, for which the “chemotactic activity / bioactivity of chemerin form” value in series [5] is “low bioactivity”.
